Experimental data reported in patent publication EP3749673B1, “CRYSTALLINE FORM OF BICTEGRAVIR SODIUM” (Sandoz AG, priority 2018, dated 2019).

What was measured:
Format in all cases: physicochemical
[1] = Initial dissolution behaviour (dissolution rate), about 100 mg suspended in 10 ml solvent, filtrate analysed by HPLC; conditions: 24°C, stirring time 1 minute, approx. 100mg in 10ml
Experimental: The initial dissolution behavior of bictegravir sodium form II was compared with bictegravir sodium form I. Approximately 100mg Bictegravir-Na (Form I or Form II) were suspended at 24°C in 10ml solvent. Two different solvents were used for the study: 0,1M aqueous HCl solution and a phosphate buffer system (pH6,8; prepared according to "Küster Thiel - Rechentafeln dür die chemische Analytik").
After a stirring time of 1 minute a sample was taken and filtered throw a syringe filter. The received clear filtrate was analyzed by HPLC to determine the Bictegravir content. The HPLC-column was a YMC-Pack Pro C18 RS (150mm x 4.6mm) operated at 0.8 ml/min. Detection was at a wavelength of 254 nm. Mobile phases were sulfamic acid in water and acetonitrile, respectively, and were used as components of the gradient.

[2] = Differential scanning calorimetry, resistance to temperature stress (solid-solid phase transition); conditions: DSC, heating rate 10 K/min, 25 to 400 °C
Experimental: Bictegravir sodium Form II was investigated by DSC, which was performed on a Mettler Polymer DSC R instrument. The sample (3.77 mg) was heated in a 40 microliter aluminium pan with a pierced aluminium lid from 25 to 400 °C at a rate of 10 K/min. Nitrogen (purge rate 50 mL/min) was used as purge gas.

[3] = Storage stability (polymorphic stability determined by XRPD); conditions: stored at 40°C/75% rh
Experimental: Thus bictegravir sodium form II is a storage stable (polymorphically stable as determined by XRPD for at least 1 month when stored at 40°C/75% rh) fast-dissolving crystalline form of bictegravir sodium with unexpected advantages over bictegravir sodium form I.

Row | SMILES | amount dissolved after 1 minute ([1]; 0.1M HCl) | amount dissolved after 1 minute ([1]; pH6.8 phosphate buffer system) | temperature at which decomposition starts ([2]; Form I formed in situ from Form II) | polymorphically stable as determined by XRPD (storage time) [3] | onset temperature of exothermic peak (solid-solid phase transition from Form II to Form I) [2] | peak temperature of exothermic peak (solid-solid phase transition from Form II to Form I) [2]
1 | O=C(NCc1c(F)cc(F)cc1F)c1cn2c(c(O)c1=O)C(=O)N1C3CCC(C3)OC1C2 (centres unmarked) [bictegravir sodium form I, bictegravir sodium] | 0.085 mg/mL | 0.059 mg/mL | about 370 °C |  |  | 
2 | O=C(NCc1c(F)cc(F)cc1F)c1cn2c(c(O)c1=O)C(=O)N1C3CCC(C3)OC1C2 (centres unmarked) [bictegravir sodium form II, bictegravir sodium] | 0.220 mg/mL | 0.186 mg/mL |  | at least 1 month | about 313 °C | about 320 °C
